“And” between values parts separate entries of the source, which are not always exact repeats. Equal values may be shown once. Read-outs that look alike come from different tables or passages of the source.
Legend:
frozen buccal tissue = assay: Ex vivo permeation model of octreotide with permeation enhancers (Franz diffusion cell)
From the text: The Franz diffusion cell apparatus consists of two chambers separated by a membrane of, for example, animal or human skin. The test product is applied to the membrane via the top chamber. The bottom chamber contains fluid from which samples are taken at regular intervals for analysis to determine the amount of active that has permeated the membrane at set time points.
Applicants performed an ex vivo screening of permeation enhancers of octreotide delivery. Ex vivo porcine tissue was used, with a tissue thickness 300 um, 3 mg of octreotide and a time of up to 6 hours.

[1] = Octreotide compatibility of permeation enhancers (solubility without precipitation)
buccal tissue = assay: HIFU as physical permeation enhancer, ex vivo permeation through full thickness tissue; type: in vitro ADME; details: HIFU 30 seconds (180 watts, duty cycle 5%, PRF 10 Hz), two hours
From the text: In one example, the inventors used High Intensity Focused Ultrasound (HIFU) as physical permeation enhancer. HIFU can have mechanical, cavitational or thermal effects on the tissue depending on the Ultrasound parameters such as intensity, duty cycle, pulse repetition frequency and the exposure time. In this experiment, the buccal tissue was subjected to HIFU for 30 seconds (power of 180 watts, duty cycle 5%, PRF of 10 Hz) octreotide permeation through the tissue was monitored for two hours in the ex vivo permeation model described earlier (except using full thickness tissue which includes connective tissue of the sub-mucosa).

[2] = Octreotide degradation on buccal tissue with microneedle application; type: in vitro ADME; details: 4 hours at 37 degrees C.
Experimental: As shown in the Table below, the buccal tissue was subjected to microneedle application (10 times) and incubated with octreotide solution (2 ml, 1 mg/ml) for 4 hours at 37 degrees C.

[3] = POC study in mini pigs, octreotide solution on buccal/sublingual mucosa after microneedles; type: in vivo; details: pig, blood; for AUC / Cmax / bioavailability: 12 mg
From the text: Solutions were placed after scraping off mucin using a spatula and then treating the area with microneedles (750 um for buccal and 500 um for sublingual). Methocel (40% in water was used as a glue to attach the holder keeping the solution on to the tissue. The test material was colored so that any loss of drug during the experimental set up could be easily monitored.

[4] = as above; type: in vivo; details: pig, blood, iv, 100 ug, 100 μg I.V.
[5] = octreotide flux, enhancer 10 Wt %, frozen buccal tissue 300 um
[6] = octreotide permeation, 10% w/w, Octreotide soluble after vigorous stirring
[7] = 10% w/w, Octreotide soluble after vigorous stirring
[8] = 12 mg solution with 5 wt % DDTMAB applied to disrupted buccal mucosa
[9] = 12 mg with 5 wt % DDTMAB applied to disrupted sublingual mucosa

Compound: CN1CCCC1=O [1-Methyl 2-Pyrrolidone]
- Average flux (frozen buccal tissue; pig, 5 Wt %): 0.08 ug/cm2*min

Compound: O=CC=Cc1ccccc1 [Cinnamaldehyde]
- Average flux (frozen buccal tissue; pig, 1 Wt %): 0.00 ug/cm2*min
- Average flux (frozen buccal tissue; pig, 3 Wt %): 0.00 ug/cm2*min

Compound: CO[C@H]1CO[C@H]2[C@@H]1OC[C@H]2OC [Dimethyl isosorbide]
- Average flux (frozen buccal tissue; octreotide flux, enhancer 5 Wt %, frozen buccal tissue 300 um): 0.07 ug/cm2*min

Compound: CCCCCCCCCCCC[N+](C)(C)C.[Br-] [Dodecyltrimethylammonium bromide]
- permeation activity (frozen buccal tissue; aliphatic trimethyl-ammonium bromide surfactants at 1 wt % (FIG. 5)): most active
- Octreotide Compatibility [1]: Yes
- compatibility with octreotide in terms of solubility without causing precipitation [1]: improved compatibility

Compound: O=C(O)CN(CCN(CC(=O)O)CC(=O)O)CC(=O)O [EDTA]
- Permeation Ranking 0-1-2-3 None-Low-Med-High (frozen buccal tissue; pig): 1
- Average flux (frozen buccal tissue; pig, 10 Wt %): 0.10 ug/cm2*min

Compound: O=C(O)CN(CCOCCOCCN(CC(=O)O)CC(=O)O)CC(=O)O [EGTA]
- Permeation Ranking 0-1-2-3 None-Low-Med-High (frozen buccal tissue): 0

Compound: C[C@H](CCC(=O)NCC(=O)[O-])[C@H]1CC[C@H]2[C@@H]3CC[C@@H]4C[C@H](O)CC[C@]4(C)[C@H]3C[C@H](O)[C@]12C.[Na+] [GDC, Sodium glycodeoxycholate]
- Average flux (frozen buccal tissue; octreotide flux, enhancer 0.1 Wt %, frozen buccal tissue 300 um): 0.14 ug/cm2*min
- Average flux (frozen buccal tissue; [5]): 0.85 ug/cm2*min
- Permeation Ranking 0-1-2-3 None-Low-Med-High (frozen buccal tissue; [6]): 2
- Octreotide Compatibility [1, 7]: Yes

Compound: CCCCCCCCCCCCOC(=O)C[N+](C)(C)C [Glycine Betaine Ester C12]
- biodegradability, quantified by analysis of glycine betaine (biological media (plasma, esterase solution, simulated intestinal fluid, tissue homogenate), 37 degrees C.): highly biodegradable
- degradability in acidic environment (simulated gastric fluid (pepsin/low pH)): not degradable
- Average flux (frozen buccal tissue): 3.14 ug/cm2*min
- flux (frozen buccal tissue): 3-3.5 μg/cm^2*min

Compound: CCCCCCCCCCCCCCCCOC(=O)C[N+](C)(C)C [Glycine Betaine Ester C16]
- Average flux (frozen buccal tissue): 0.69 ug/cm2*min
- flux (frozen buccal tissue): 3-3.5 μg/cm^2*min

Compound: CCCCCCCC/C=C\CCCCCCCCOC(=O)C[N+](C)(C)C [Glycine Betaine Ester C18 (Oleyl)]
- Average flux (frozen buccal tissue): 0.51 ug/cm2*min
- flux (frozen buccal tissue): 3-3.5 μg/cm^2*min

Compound: CCCCCCCCCCCCCCCC[N+](C)(C)C.[Br-] [Hexadecyltrimethylammonium bromide]
- permeation activity (frozen buccal tissue): most active
- Permeation Ranking 0-1-2-3 None-Low-Med-High (frozen buccal tissue; pig): 3
- Average flux (frozen buccal tissue; pig, 1 Wt %): 1.23 ug/cm2*min
- compatibility with octreotide in terms of solubility without causing precipitation [1]: improved compatibility

Compound: CCCCCC[N+](C)(C)C.[Br-] [Hexyltrimethylammonium bromide]
- permeation activity (frozen buccal tissue): not active

Compound: CCCCCCCCCCCCCCCCOP(=O)([O-])OCC[N+](C)(C)C [Miltefosine (Hexadecyl Phosphatidyl Choline), reference compound]
- Average flux (frozen buccal tissue): 0.14 ug/cm2*min

Compound: C[C@@H](O)[C@@H]1NC(=O)[C@H](CCCCN)NC(=O)[C@@H](Cc2c[nH]c3ccccc23)NC(=O)[C@H](Cc2ccccc2)NC(=O)[C@@H](NC(=O)[C@H](N)Cc2ccccc2)CSSC[C@@H](C(=O)N[C@H](CO)[C@@H](C)O)NC1=O [Octreotide]
- flux (frozen buccal tissue; octreotide concentration of 5 mg/ml (FIG. 4)): approximately 0.500 ug/cm2*min
- flux (frozen buccal tissue; octreotide concentration of 15-20 mg/ml (FIG. 4)): 2.0-2.5 ug/cm2*min
- octreotide permeated through the tissue (buccal tissue): ~60 µg
- remaining at 4 h, 1 mg/ml ([2]; + Tissue with microneedle (10 times)): 98%
- remaining at 4 h, 1 mg/ml ([2]; buccal tissue incubated with octreotide solution, + Tissue): 86%
- remaining at 4 h, 1 mg/ml ([2]; control without tissue, control, octreotide solution 2 ml, 1 mg/ml): 100%

Compound: CCCCCCCCN1CCCC1=O [Octyl pyrroldone]
- Average flux (frozen buccal tissue): 0.10 ug/cm2*min

Compound: CCCCCCCC[N+](C)(C)C.[Br-] [Octyltrimethylammonium bromide]
- permeation activity (frozen buccal tissue): not active

Compound: CCCCCCCC/C=C\CCCCCCCC(=O)O [Oleic acid]
- Permeation Ranking 0-1-2-3 None-Low-Med-High (frozen buccal tissue; pig): 0
- Average flux (frozen buccal tissue; pig, 5 Wt %): 0.01 ug/cm2*min

Compound: Cl.NCCCNCCCCNCCCN [Spermine HCl]
- Average flux (frozen buccal tissue; pig, 10 Wt %): 0.58 ug/cm2*min

Compound: CCCCCCCCCCCCCCO[C@@H]1O[C@H](CO)[C@@H](O[C@H]2O[C@H](CO)[C@@H](O)[C@H](O)[C@H]2O)[C@H](O)[C@H]1O [TDM]
- Permeation Ranking 0-1-2-3 None-Low-Med-High (frozen buccal tissue): 1

Compound: CCCCCCCCCCCCCCCC[N+](C)(C)C.[Br-] [drawing 5]
- Avg Flux (frozen buccal tissue; pig, 1 wt %): 1.31 (1 wt %) μg/cm^2*min

Compound: C[C@@H](O)[C@@H]1NC(=O)[C@H](CCCCN)NC(=O)[C@@H](Cc2c[nH]c3ccccc23)NC(=O)[C@H](Cc2ccccc2)NC(=O)[C@@H](NC(=O)[C@H](N)Cc2ccccc2)CSSC[C@@H](C(=O)N[C@H](CO)[C@@H](C)O)NC1=O [octreotide acetate]
- Tmax [3, 8]: 3 h
- AUC [3, 8]: 19.8 ng·h/mL
- Cmax [3, 8]: 4.2 ng/mL
- bioavailability [3, 8]: 1.11%
- AUC [3, 9]: 106 ng·h/mL
- Cmax [3, 9]: 25.6 ng/mL
- bioavailability [3, 9]: 5.97%
- AUC [4]: 14.8 ng·h/mL
- Cmax [4]: 31 ng/mL
- Tmax [4]: 4 min

Compound: Benzalkonium chloride [Benzalkonium chloride (BAC)]
- Permeation Ranking 0-1-2-3 None-Low-Med-High (frozen buccal tissue): 3

Compound: Dimethyl-cyclodextrin
- Average flux (frozen buccal tissue): 0.53 ug/cm2*min
- Permeation Ranking 0-1-2-3 None-Low-Med-High (frozen buccal tissue): 1

Compound: Hydroxypropylcyclodextrin
- Average flux (frozen buccal tissue): 0.15 ug/cm2*min

Compound: Sodium Deoxycholate [DOC]
- Average flux (frozen buccal tissue; [5]): 0.49 ug/cm2*min and 0.41 ug/cm2*min
- Permeation Ranking 0-1-2-3 None-Low-Med-High (frozen buccal tissue; [6]): 1
- Octreotide Compatibility [1, 7]: Yes

Source: US20190091281A1, “DELIVERY PHARMACEUTICAL COMPOSITIONS INCLUDING PERMEATION ENHANCERS” (AQUESTIVE THERAPEUTICS, INC., priority 2017, published 2019)
